Test results as given in PubChem BioAssay (NCI).
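Where inhibition never reached the appropriate level, the endpoint shown equals the highest concentration tested. Otherwise, values were interpolated linearly from a five-concentration, 48-hour dose response in 96-well plates. The concentration for 50% growth inhibition is given as GI50. TGI: total growth inhibition.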

Legend:
Experiment in all cases: NCI tumour cell line growth inhibition, 48 h
[1] = tested on: HCT-15 colon
[2] = tested on: DU-145 prostate
[3] = tested on: RPMI-8226 leukemia
[4] = tested on: OVCAR-4 ovarian
[5] = tested on: NCI-H460 lung
[6] = tested on: K-562 leukemia
[7] = tested on: 786-0 renal
[8] = tested on: OVCAR-5 ovarian
[9] = tested on: TK-10 renal
[10] = tested on: SW-620 colon
[11] = tested on: OVCAR-3 ovarian
[12] = tested on: MALME-3M melanoma
[13] = tested on: SK-MEL-28 melanoma
[14] = tested on: SF-539 CNS
[15] = tested on: PC-3 prostate
[16] = tested on: SN12C renal
[17] = tested on: NCI/ADR-RES ovarian
[18] = tested on: T-47D breast
[19] = tested on: MCF7 breast
[20] = tested on: RXF 393 renal
[21] = tested on: KM12 colon
[22] = tested on: HOP-62 NSCLC
[23] = tested on: SNB-75 CNS
[24] = tested on: COLO 205 colon
[25] = tested on: A498 renal
[26] = tested on: EKVX NSCLC
[27] = tested on: IGROV1 ovarian
[28] = tested on: LOX IMVI melanoma
[29] = tested on: SF-268 CNS
[30] = tested on: HCC-2998 colon
[31] = tested on: HL-60(TB) leukemia
[32] = tested on: SNB-19 CNS
[33] = tested on: UACC-62 melanoma
[34] = tested on: HT29 colon
[35] = tested on: MDA-MB-435
[36] = tested on: HCT-116 colon
[37] = tested on: SK-MEL-2 melanoma
[38] = tested on: SK-MEL-5 melanoma
[39] = tested on: NCI-H522 lung
[40] = tested on: MOLT-4 leukemia
[41] = tested on: SK-OV-3 ovarian
[42] = tested on: M14 melanoma
[43] = tested on: CCRF-CEM leukemia
[44] = tested on: UACC-257 melanoma
[45] = tested on: BT-549 breast
[46] = tested on: OVCAR-8 ovarian
[47] = tested on: A549 NSCLC
[48] = tested on: HS 578T breast
[49] = tested on: CAKI-1 renal
[50] = tested on: NCI-H226 lung
[51] = tested on: SF-295 CNS
[52] = tested on: MDA-MB-231 breast
[53] = tested on: HOP-92 NSCLC
[54] = tested on: U251 CNS
[55] = tested on: UO-31 renal
[56] = tested on: ACHN renal

For `C#Cc1nc(C2=C(C)/C(=N/OCc3ccccc3)CC2)cs1`, the GI50 [1] was 27.8 µM, the TGI [1] was > 100 µM and the GI50 [2] was > 100 µM. The TGI [2] was > 100 µM, the GI50 [3] was 5.74 µM and the TGI [3] was 38.3 µM. For the same molecule, the GI50 [4] was 50.9 µM, the TGI [4] was > 100 µM and the GI50 [5] was 44.2 µM. The TGI [5] was > 100 µM, the GI50 [6] was 40.4 µM and the TGI [6] was > 100 µM. The GI50 [7] was 1.63 µM, the TGI [7] was 3.12 µM and the GI50 [8] was 11.7 µM. For the same molecule, the TGI [8] was > 100 µM, the GI50 [9] was > 100 µM and the TGI [9] was > 100 µM. For the same molecule, the GI50 [10] was 46.9 µM, the TGI [10] was > 100 µM and the GI50 [11] was > 100 µM. The TGI [11] was > 100 µM, the GI50 [12] was 8.37 µM and the TGI [12] was 30.6 µM. For the same molecule, the GI50 [13] was 49.2 µM, the TGI [13] was > 100 µM and the GI50 [14] was 1.67 µM. For the same molecule, the TGI [14] was 3.07 µM, the GI50 [15] was 36.8 µM and the TGI [15] was > 100 µM. The GI50 [16] was 19.9 µM, the TGI [16] was > 100 µM and the GI50 [17] was 40.1 µM. For the same molecule, the TGI [17] was > 100 µM, the GI50 [18] was 31 µM and the TGI [18] was > 100 µM. For the same molecule, the GI50 [19] was 21.6 µM, the TGI [19] was > 100 µM and the GI50 [20] was 2.76 µM. For the same molecule, the TGI [20] was 21.7 µM, the GI50 [21] was > 100 µM and the TGI [21] was > 100 µM. For the same molecule, the GI50 [22] was > 100 µM, the TGI [22] was > 100 µM and the GI50 [23] was > 100 µM. For the same molecule, the TGI [23] was > 100 µM, the GI50 [24] was > 100 µM and the TGI [24] was > 100 µM. For the same molecule, the GI50 [25] was > 100 µM, the TGI [25] was > 100 µM and the GI50 [26] was > 100 µM. For the same molecule, the TGI [26] was > 100 µM, the GI50 [27] was 1.97 µM and the TGI [27] was 4.29 µM. For the same molecule, the GI50 [28] was 0.199 µM, the TGI [28] was 0.444 µM and the GI50 [29] was 34.7 µM. For the same molecule, the TGI [29] was > 100 µM, the GI50 [30] was > 100 µM and the TGI [30] was > 100 µM. For the same molecule, the GI50 [31] was 17.5 µM, the TGI [31] was 40.9 µM and the GI50 [32] was 57.1 µM. For the same molecule, the TGI [32] was > 100 µM, the GI50 [33] was 37.2 µM and the TGI [33] was > 100 µM. The GI50 [34] was 31 µM, the TGI [34] was > 100 µM and the GI50 [35] was > 100 µM. The TGI [35] was > 100 µM, the GI50 [36] was 31.9 µM and the TGI [36] was > 100 µM. For the same molecule, the GI50 [37] was 61.8 µM, the TGI [37] was > 100 µM and the GI50 [38] was 22.6 µM. The TGI [38] was > 100 µM, the GI50 [39] was 5.23 µM and the TGI [39] was 23.3 µM. For the same molecule, the GI50 [40] was 22.4 µM, the TGI [40] was 87.6 µM and the GI50 [41] was 25.5 µM. The TGI [41] was 61.6 µM, the GI50 [42] was 74.8 µM and the TGI [42] was > 100 µM. For the same molecule, the GI50 [43] was 3.28 µM, the TGI [43] was 15.6 µM and the GI50 [44] was 78.5 µM. The TGI [44] was > 100 µM, the GI50 [45] was 15.5 µM and the TGI [45] was 33.9 µM. The GI50 [46] was 47.8 µM, the TGI [46] was > 100 µM and the GI50 [47] was 43.4 µM. For the same molecule, the TGI [47] was > 100 µM, the GI50 [48] was 71.4 µM and the TGI [48] was > 100 µM. The GI50 [49] was 32.6 µM, the TGI [49] was > 100 µM and the GI50 [50] was 13.5 µM. For the same molecule, the TGI [50] was > 100 µM, the GI50 [51] was 4.76 µM and the TGI [51] was > 100 µM. The GI50 [52] was 32.2 µM, the TGI [52] was > 100 µM and the GI50 [53] was 5.71 µM. The TGI [53] was 24.5 µM, the GI50 [54] was 50.1 µM and the TGI [54] was > 100 µM. The GI50 [55] was 0.405 µM, the TGI [55] was 1.49 µM and the GI50 [56] was 2.91 µM. For the same molecule, the TGI [56] was > 100 µM.
